tested on: phospho-ERK formation (Raf kinase activity) in A375 cells; assay: Phospho-ERK ELISA assay; type: cell-based; settings: Homo sapiens, A-375, 3 h, 3 hours with inhibitor, read-out: IC50, inhibition of the formation of phospho-ERK
Method: Inhibition of Raf kinase activity in whole cell systems can be assessed by determining the decrease in phosphorylation of Raf kinase substrates. Any known Raf kinase substrate can be used to measure inhibition of Raf kinase activity in a whole cell system.
Medium was removed, and cells were incubated with Raf kinase inhibitors for 3 hours at 37° C. Medium was removed, and cells were fixed with 4% paraformaldehyde for 15 minutes at room temperature.
Methanol was added for 15 min. Cells were removed and blocked with 10% sheep serum and 1% BSA in PBS overnight at 4° C. Cells were incubated with anti-p44/42MAPK antibody (1:100, Cell Signaling Technologies, #9101L) (20 μL/well) for one hour at room temperature. After washing with PBS three times, cells were stained with anti-rabbit horseradish peroxidase-linked antibody from donkey (1:100, Amersham Bioscience #NA934V) for 1 hour at room temperature. Cells were washed three times with 0.5% Tween-20 in PBS and twice with PBS. 3,3′, 5,5′-Tetramethylbenzidine (TMB) liquid substrate system (Sigma, #T8665) (50 μL/well) was added, and cells were incubated for 30-45 minutes at room temperature. Optical density was read at 650 nm. Cells were then washed 3-5 times with PBS to remove color solution. Results were normalized for the protein content in each well using a BCA protein assay kit (Pierce).

Structure (SMILES)	IC50 [µM]
CNC(=O)c1cc(Oc2ccc3c(c2)CC(C(=O)Nc2cccc(CN)c2)CC3)ccn1 (stereo not drawn) [Compound I-51, 4-{[7-({[3-(aminomethyl)phenyl]amino}carbonyl)-5,6,7,8-tetrahydronaphthalen-2-yl]oxy}-N-methylpyridine-2-carboxamide]	≤ 25
CNC(=O)c1cc(Oc2ccc3c(c2)CC(C(=O)Nc2ccc(CN4CCCC4)c(C(F)(F)F)c2)CC3)ccn1 (stereo not drawn) [Compound I-129, N-methyl-4-{[7-({[4-(pyrrolidin-1-ylmethyl)-3-(trifluoromethyl)phenyl]amino}carbonyl)-5,6,7,8-tetrahydronaphthalen-2-yl]oxy}pyridine-2-carboxamide]	≤ 25
O=C(Nc1ccc(Cl)c(C(F)(F)F)c1)c1ccc2ccc(Oc3ccnc(C4=NCCN4)c3)cc2c1 [Compound I-46, N-[4-chloro-3-(trifluoromethyl)phenyl]-7-{[2-(4,5-dihydro-1H-imidazol-2-yl)pyridin-4-yl]oxy}-2-naphthamide]	≤ 25
CC(C)(C)c1cccc(NC(=O)c2ccc3ccc(Oc4ccnc(C(=N)N5CCOCC5)c4)cc3c2)c1 [Compound I-99, N-(3-tert-butylphenyl)-7-({2-[imino(morpholin-4-yl)methyl]pyridin-4-yl}oxy)-2-naphthamide]	≤ 25
O=C(Nc1ccc(Cl)c(C(F)(F)F)c1)C1Cc2cc(Oc3ccnc(C4=NCCN4)c3)ccc2CN1 (stereo not drawn) [Compound I-54, N-[4-chloro-3-(trifluoromethyl)phenyl]-6-{[2-(4,5-dihydro-1H-imidazol-2-yl)pyridin-4-yl]oxy}-1,2,3,4-tetrahydroisoquinoline-3-carboxamide]	≤ 25
O=C(Nc1cc(OC2CCNCC2)cc(C(F)(F)F)c1)c1ccc2ccc(Oc3ccnc(C4=NCCN4)c3)cc2c1 [Compound I-48, 7-{[2-(4,5-dihydro-1H-imidazol-2-yl)pyridin-4-yl]oxy}-N-[3-(piperidin-4-yloxy)-5-(trifluoromethyl)phenyl]-2-naphthamide]	≤ 25
CNC(=O)c1cc(Oc2ccc3c(c2)CC(C(=O)Nc2ccc(CN)cc2)CC3)ccn1 (stereo not drawn) [Compound I-42, 4-{[7-({[4-(aminomethyl)phenyl]amino}carbonyl)-5,6,7,8-tetrahydronaphthalen-2-yl]oxy}-N-methylpyridine-2-carboxamide]	≤ 25
O=C(Nc1ccc(Cl)c(C(F)(F)F)c1)c1cc2cc(Oc3ccnc(C4=NCCN4)c3)ccc2cn1 [Compound I-35, N-[4-chloro-3-(trifluoromethyl)phenyl]-6-{[2-(4,5-dihydro-1H-imidazol-2-yl)pyridin-4-yl]oxy}isoquinoline-3-carboxamide]	≤ 25
O=C(Nc1ccc(Cl)c(C(F)(F)F)c1)C1CCc2cccc(Oc3ccnc(C4=NCCN4)c3)c2C1 (stereo not drawn) [Compound I-21, N-[4-chloro-3-(trifluoromethyl)phenyl]-8-{[2-(4,5-dihydro-1H-imidazol-2-yl)pyridin-4-yl]oxy}-1,2,3,4-tetrahydronaphthalene-2-carboxamide]	≤ 25
CNC(=O)c1cc(Oc2ccc3c(c2)CC(C(=O)Nc2ccc(CCN)cc2)CC3)ccn1 (stereo not drawn) [Compound I-29, 4-{[7-({[4-(2-aminoethyl)phenyl]amino}carbonyl)-5,6,7,8-tetrahydronaphthalen-2-yl]oxy}-N-methylpyridine-2-carboxamide]	≤ 25
N#Cc1ccc(NC(=O)c2ccc3ccc(Oc4ccnc(N)c4)cc3c2)cc1C(F)(F)F [Compound I-158, 7-[(2-aminopyridin-4-yl)oxy]-N-[4-cyano-3-(trifluoromethyl)phenyl]-2-naphthamide]	≤ 25
CC(C)(C)c1cccc(NC(=O)c2ccc3ccc(Oc4ccnc(C(=N)N5CCCC5)c4)cc3c2)c1 [Compound I-93, N-(3-tert-butylphenyl)-7-({2-[imino(pyrrolidin-1-yl)methyl]pyridin-4-yl}oxy)-2-naphthamide]	≤ 25
CN(C)CC(=O)Nc1cc(Oc2ccc3ccc(C(=O)Nc4ccc(Cl)c(C(F)(F)F)c4)cc3c2)ccn1 [Compound I-138, N-[4-chloro-3-(trifluoromethyl)phenyl]-7-[(2-{[(dimethylamino)acetyl]amino}pyridin-4-yl)oxy]-2-naphthamide]	≤ 25

The next lines start with the values.

IC50 [µM]	Structure (SMILES)
≤ 25	Nc1cc(Oc2ccc3ccc(C(=O)Nc4cc(OCCN5CCCC5)cc(C(F)(F)F)c4)cc3c2)ccn1 [Compound I-142, 7-[(2-aminopyridin-4-yl)oxy]-N-[3-(2-pyrrolidin-1-ylethoxy)-5-(trifluoromethyl)phenyl]-2-naphthamide]
≤ 25	CC(=O)Nc1cc(Oc2ccc3c(c2)CC(C(=O)Nc2ccc(Cl)cc2)CC3)ccn1 (stereo not drawn) [Compound I-303, 7-{[2-(acetylamino)pyridin-4-yl]oxy}-N-(4-chlorophenyl)-1,2,3,4-tetrahydronaphthalene-2-carboxamide]
≤ 25	CC(C)(C)c1cccc(NC(=O)C2CCc3ccc(Oc4ccnc(CN)c4)cc3C2)c1 (stereo not drawn) [Compound I-331, 7-{[2-(aminomethyl)pyridin-4-yl]oxy}-N-(3-tert-butylphenyl)-1,2,3,4-tetrahydronaphthalene-2-carboxamide]
≤ 25	CCNC(=O)NCc1cc(NC(=O)C2CCc3ccc(Oc4ccnc(C(=O)NC)c4)cc3C2)cc(C(F)(F)F)c1 (stereo not drawn) [Compound I-420, 4-{[7-({[3-({[(ethylamino)carbonyl]amino}methyl)-5-(trifluoromethyl)phenyl]amino}carbonyl)-5,6,7,8-tetrahydronaphthalen-2-yl]-oxy}-N-methylpyridine-2-carboxamide]
≤ 25	O=C(Nc1cc(OCCN2CCCC2)cc(C(F)(F)F)c1)c1cnc2ccc(Oc3ccncc3)cc2c1 [Compound I-351, 6-(pyridin-4-yloxy)-N-[3-(2-pyrrolidin-1-ylethoxy)-5-(trifluoromethyl)phenyl]quinoline-3-carboxamide]
≤ 25	Cn1cc(-c2cc(Oc3ccc4c(c3)CC(C(=O)Nc3cc(CN5CCCC5)cc(C(F)(F)F)c3)CC4)ccn2)cn1 (stereo not drawn) [Compound I-344, 7-{[2-(1-methyl-1H-pyrazol-4-yl)pyridin-4-yl]oxy}-N-[3-(pyrrolidin-1-ylmethyl)-5-(trifluoromethyl)phenyl]-1,2,3,4-tetrahydronaphthalene-2-carboxamide]
≤ 25	CC(=O)Nc1cc(Oc2ccc3c(c2)CC(C(=O)Nc2ccc(C(F)(F)F)cc2)CC3)ccn1 (stereo not drawn) [Compound I-281, 7-{[2-(acetylamino)pyridin-4-yl]oxy}-N-[4-(trifluoromethyl)phenyl]-1,2,3,4-tetrahydronaphthalene-2-carboxamide]
≤ 25	CC(=O)NCc1cc(Oc2ccc3c(c2)CC(C(=O)Nc2cccc(C(C)(C)C)c2)CC3)ccn1 (stereo not drawn) [Compound I-246, 7-({2-[(acetylamino)methyl]pyridin-4-yl}oxy)-N-(3-tert-butylphenyl)-1,2,3,4-tetrahydronaphthalene-2-carboxamide]
≤ 25	Nc1cc(Oc2ccc3ccc(C(=O)Nc4ccc(Cl)c(C(F)(F)F)c4)cc3c2)ccn1 [Compound I-162, 7-[(2-aminopyridin-4-yl)oxy]-N-[4-chloro-3-(trifluoromethyl)phenyl]-2-naphthamide]
≤ 25	CC(C)(C)c1cccc(NC(=O)C2CCc3ccc(Oc4ccnc(N)c4)cc3C2)c1 (stereo not drawn) [Compound I-235, 7-[(2-aminopyridin-4-yl)oxy]-N-(3-tert-butylphenyl)-1,2,3,4-tetrahydronaphthalene-2-carboxamide]
≤ 25	N=C(N)c1cc(Oc2ccc3ccc(C(=O)Nc4ccc(CN)c(C(F)(F)F)c4)cc3c2)ccn1 [Compound I-381, 7-({2-[amino(imino)methyl]pyridin-4-yl}oxy)-N-[4-(aminomethyl)-3-(trifluoromethyl)phenyl]-2-naphthamide]
≤ 25	CC(C)(C)c1cccc(NC(=O)c2cnc3ccc(Oc4ccnc(C#N)c4)cc3c2)c1 [Compound I-448, N-(3-tert-butylphenyl)-6-[(2-cyanopyridin-4-yl)oxy]quinoline-3-carboxamide]
≤ 25	NCc1cc(NC(=O)C2CCc3ccc(Oc4ccnc(C(=O)N5CCCC5)c4)cc3C2)cc(C(F)(F)F)c1 (stereo not drawn) [Compound I-362, N-[3-(aminomethyl)-5-(trifluoromethyl)phenyl]-7-{[2-(pyrrolidin-1-ylcarbonyl)pyridin-4-yl]oxy}-1,2,3,4-tetrahydronaphthalene-2-carboxamide]
≤ 25	CNC(=O)c1cc(Oc2ccc3c(c2)C[C@H](C(=O)Nc2cc(CN)cc(C(F)(F)F)c2)CC3)ccn1 [Compound I-244, 4-{[(7R)-7-({[3-(aminomethyl)-5-(trifluoromethyl)phenyl]amino}carbonyl)-5,6,7,8-tetrahydronaphthalen-2-yl]oxy}-N-methylpyridine-2-carboxamide]
≤ 25	CC(C)(C)c1cccc(NC(=O)c2ccc3ccc(Oc4ccnc(C#N)c4)cc3c2)c1 [Compound I-340, N-(3-tert-butylphenyl)-7-[(2-cyanopyridin-4-yl)oxy]-2-naphthamide]
≤ 25	CC(C)(C)c1cccc(NC(=O)C2COc3ccc(Oc4ccnc(C5=NCCN5)c4)cc3C2)c1 (stereo not drawn) [Compound I-349, N-(3-tert-butylphenyl)-6-{[2-(4,5-dihydro-1H-imidazol-2-yl)pyridin-4-yl]oxy}chromane-3-carboxamide]
≤ 25	CC(C)(C)c1cccc(NC(=O)c2cnc3ccc(Oc4ccncc4)cc3c2)c1 [Compound I-299, N-(3-tert-butylphenyl)-6-(pyridin-4-yloxy)quinoline-3-carboxamide]

— US8110687B2, “Bicyclic compounds with kinase inhibitory activity” (Millennium Pharmaceuticals, Inc., priority 2005, dated 2012)
